{"source": "patent US20070280982A1", "about": "“Antimicrobial compositions comprising hop acid alkali salts and uses thereof” (priority 2006, published 2007)", "key": {"[1]": {"tested_on": "B. subtilis", "assay": "Shelf-life extension (bacteriostatic) assay, broth dilution, FIG. 1 and FIG. 3", "format": "cell-based, Bacillus subtilis", "details": "glycine alone versus combined with beta acid sodium salts", "experimental": "Shelf-life extension assays were performed using the broth dilution method. Final inoculum concentration was […]. Microbial growth was assayed with a spectrophotometer by monitoring the absorption at 600 nm after 2 to 3 days. […] After incubation, colonies were counted."}, "[2]": {"tested_on": "Bacillus subtilis", "details": "cited from earlier work"}}}
{"smiles": "NCC(=O)O", "note": "[Glycine]", "values": [{"measurement": "Effect on bacterial growth, alone or in combination (FIG. 3)", "setting": "[1]", "result": "almost no effect on bacterial growth"}, {"measurement": "Known activity against Bacillus subtilis", "setting": "[2]", "result": "relatively weak activity"}]}
